Key:
[1] = test system: ERK; assay: ERK phosphorylation, immunoblot; type: cell-based
Description: (§1) For determination of phosphorylated proteins, 5 μg whole cell lysate from serum-starved cells was resolved by SDS–PAGE and electroblotted onto nitrocellulose membranes. After transfer and blocking in 5% nonfat milk, primary antibody staining was carried out by incubation overnight at 4°C, and secondary antibody staining was for 1 h at room temperature. The chemiluminescence detection method (ECL) was used for all Western blot experiments.
(§2) Extracellular regulated kinase-1 and -2 (ERK-2), phospholipase C γ (PLC-γ), protein kinase B (AKT) and the signal transducer and activator of transcription 3 (STAT3) are all essential downstream targets of EGFR and mediate many of its oncogenic effects.
(§3) Figure 3 (A) Phosphorylation of key signalling molecules upon EGF (10 nM for 10 min) stimulation in the four cell lines.

[2] = test system: STAT3; assay: STAT3 phosphorylation, immunoblot; type: cell-based; conditions: NR6M cells (EGFRvIII-expressing)
Description: as §1, §2, §3

[3] = test system: LN229/EGFR cells; set-up: method as in Li et al (2003); conditions: ref Li et al (2003); cited from earlier work
[4] = test system: EGFRvIII-expressing cells; set-up: method as in Montgomery, 2002; conditions: ref Montgomery, 2002; cited from earlier work

Question: For COc1cc2ncnc(Nc3ccc(F)c(Cl)c3)c2cc1OCCCN1CCOCC1 [gefitinib], which “Effect on ERK phosphorylation” value ([1]; NR6M cells, 0.1 μM gefitinib, after 48 and 72 h) is on record?
Answer: increased

Question: What about the “Response of ERK phosphorylations to gefitinib” value ([1]; NR6W cells, up to the highest concentrations (2 μM)) of the same compound?
Answer: unresponsive

Question: And the “Effect on background level of STAT3 phosphorylation” value [2]?
Answer: no effect

Question: Which “Concentration that stimulated proliferation” value [3] does the source give for COc1cc2ncnc(Nc3cccc(Br)c3)c2cc1OC [PD153035] here?
Answer: 0.05 µM

Question: Which “Concentration that stimulated colony formation” value [4] does the source give for COc1cc2ncnc(Nc3cccc(Cl)c3)c2cc1OC [AG1478] here?
Answer: 0.1 µM
